In patent publication US9822110B2, “Sulfonamide derivative and pharmaceutical use thereof” (EA Pharma Co., Ltd., priority 2013, dated 2017):

Target: T1, MAdCAM-1/α4β7 integrin (Homo sapiens, UniProt P13612+P26010)
T1 construct: a human B-cell line known to express α4β7 integrin; endogenous in cells; host or cells: RPMI-8866 (human B-cell line)
T1 sequence (P13612 34-1032): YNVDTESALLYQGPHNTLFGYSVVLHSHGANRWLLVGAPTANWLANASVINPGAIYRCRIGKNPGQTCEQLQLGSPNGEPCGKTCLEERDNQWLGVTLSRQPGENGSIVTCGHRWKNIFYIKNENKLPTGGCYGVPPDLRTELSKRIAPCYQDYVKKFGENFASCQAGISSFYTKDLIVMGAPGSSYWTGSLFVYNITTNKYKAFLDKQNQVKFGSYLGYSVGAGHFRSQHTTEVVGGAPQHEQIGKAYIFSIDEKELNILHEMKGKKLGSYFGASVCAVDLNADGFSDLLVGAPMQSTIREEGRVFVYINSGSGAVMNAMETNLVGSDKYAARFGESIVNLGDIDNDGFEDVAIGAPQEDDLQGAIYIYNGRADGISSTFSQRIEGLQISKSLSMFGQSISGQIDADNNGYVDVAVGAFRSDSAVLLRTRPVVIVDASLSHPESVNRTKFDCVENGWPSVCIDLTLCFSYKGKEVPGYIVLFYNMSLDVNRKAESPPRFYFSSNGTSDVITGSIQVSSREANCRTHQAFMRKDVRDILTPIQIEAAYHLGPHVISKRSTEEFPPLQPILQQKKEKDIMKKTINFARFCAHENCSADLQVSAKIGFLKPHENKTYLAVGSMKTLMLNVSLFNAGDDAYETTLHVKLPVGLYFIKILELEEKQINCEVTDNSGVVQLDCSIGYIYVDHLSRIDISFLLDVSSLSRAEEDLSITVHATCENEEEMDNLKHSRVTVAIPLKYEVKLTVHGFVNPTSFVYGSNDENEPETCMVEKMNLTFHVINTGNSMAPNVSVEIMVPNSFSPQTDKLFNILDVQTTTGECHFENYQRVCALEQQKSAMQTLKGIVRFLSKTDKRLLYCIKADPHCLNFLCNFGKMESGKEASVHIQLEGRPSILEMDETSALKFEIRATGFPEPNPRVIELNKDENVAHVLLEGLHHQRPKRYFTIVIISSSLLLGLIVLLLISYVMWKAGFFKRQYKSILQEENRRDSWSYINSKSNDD
T1 sequence (P26010 20-798): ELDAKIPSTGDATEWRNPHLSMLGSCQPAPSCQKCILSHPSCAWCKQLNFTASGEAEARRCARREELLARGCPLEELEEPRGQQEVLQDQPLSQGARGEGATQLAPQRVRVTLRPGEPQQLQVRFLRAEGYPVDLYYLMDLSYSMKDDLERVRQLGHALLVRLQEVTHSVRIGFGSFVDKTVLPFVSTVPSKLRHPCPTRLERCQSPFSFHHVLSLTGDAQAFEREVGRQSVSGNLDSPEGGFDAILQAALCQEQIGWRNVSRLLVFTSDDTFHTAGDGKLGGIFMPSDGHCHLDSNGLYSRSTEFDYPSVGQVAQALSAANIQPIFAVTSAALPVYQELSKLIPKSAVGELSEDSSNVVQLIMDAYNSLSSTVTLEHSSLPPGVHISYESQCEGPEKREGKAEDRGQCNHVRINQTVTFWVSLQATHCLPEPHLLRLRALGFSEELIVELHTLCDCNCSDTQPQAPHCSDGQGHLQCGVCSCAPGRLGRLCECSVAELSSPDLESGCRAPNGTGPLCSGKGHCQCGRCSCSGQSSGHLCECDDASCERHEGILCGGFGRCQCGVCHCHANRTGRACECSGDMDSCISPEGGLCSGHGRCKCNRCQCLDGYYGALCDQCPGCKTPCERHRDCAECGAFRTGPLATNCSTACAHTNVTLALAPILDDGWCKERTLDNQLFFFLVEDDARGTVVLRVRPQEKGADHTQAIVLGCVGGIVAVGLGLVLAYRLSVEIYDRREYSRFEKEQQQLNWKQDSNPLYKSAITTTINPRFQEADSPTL
Experiment: Evaluation test (1) for MAdCAM-1/α4β7 integrin binding inhibitory activity in the presence of serum (RPMI-8866 cell binding to MAdCAM-1/Fc)
Assay type: cell-based
Conditions: RPMI-8866 cells, recombinant mouse MAdCAM-1/Fc, human serum at final concentration of 50%; read-out: α4β7 Serum Activity rank when α4β7 serum was added
Method: The selectivity was determined by dividing the IC50 value in the evaluation test for VCAM-1/α4β1 integrin binding inhibitory activity by the IC50 value in the evaluation test for MAdCAM-1/α4β7 integrin binding inhibitory activity. • (3) Evaluation Test (1) for MAdCAM-1/α4β7 Integrin Binding Inhibitory Activity in the Presence of Serum
The ability of test substances to inhibit the binding of RPMI-8866 cell line, a human B-cell line known to express α4β7 integrin, to MAdCAM-1 was examined.
A 96-well microtiter plate was coated overnight at 4° C. with a recombinant mouse MAdCAM-1/Fc (R&D systems) solution diluted with the buffer A (carbonate buffer, pH 9.6). After washing once with PBS, 150 μL/well of Block Ace (manufactured by Snow Brand Milk Products Co., Ltd.) was added, and it was incubated at room temperature for 2 hours. After removal, it was washed once with PBS.
100 μL of each of test substances and RPMI-8866 cells diluted with a binding buffer solution (DMEM containing 40 mM HEPES, 0.2% BSA, and 4 mM MnCl2) to various concentrations was added to the plate coated with MAdCAM-1/Fc, so that human serum was contained at a final concentration of 50%, and it was incubated at 30° C. for 15 minutes to 60 minutes. After the cells were bound to the wells, unbound cells were removed by washing with PBS. 50 μL/well of the buffer solution C (PBS containing 1.5% Triton X-100) was added to the plate to dissolve the bound RPMI-8866 cells. 30 μL of substrate buffer (Promega, CytoTox 96 Non-Radioactive Cytotoxicity Assay) was added to 30 μL of a cell lysate to allow a reaction for 30 minutes at room temperature in a dark place. 30 μL of stop solution (Promega, CytoTox 96 Non-Radioactive Cytotoxicity Assay) was added thereto to determine the absorbance at 490 nm using a plate reader. The absorbance was obtained herein by detecting the activity of lactate dehydrogenase (LDH) eluted in a supernatant of each well, that is, the absorbance is proportional to the number of RPMI-8866 cells remaining on the plate by being bound to MAdCAM-1. The test was duplicated, and the cell binding rate at various concentrations with the absorbance of the well containing no test substance being taken as 100% was determined, to calculate the concentration IC50 at which 50% of binding was inhibited.

Row | SMILES | IC50
1 | Cn1c(=O)n(-c2ccc(C[C@H](NC(=O)c3cc(F)c(NS(=O)(=O)c4ccc(-c5cnc(C6CCNCC6)nc5)cc4)cc3F)C(=O)O)nc2)c(=O)c2ccncc21 [Example 26, (2S)-2-[[2,5-Difluoro-4-[[4-[2-(4-piperidyl)pyrimidin-5-yl]phenyl]sulfonylamino]benzoyl]amino]-3-[5-(1-methyl-2,4-dioxo-pyrido[3,4-d]pyrimidin-3-yl)-2-pyridyl]propanoic acid] | 10 to 50 nM
2 | Cn1c(=O)n(-c2ccc(C[C@H](NC(=O)c3cc(F)c(NS(=O)(=O)c4ccc(-c5cnc(C6CCOCC6)nc5)cc4)cc3F)C(=O)O)nc2)c(=O)c2ccncc21 [Example 27, (2S)-2-[[2,5-Difluoro-4-[[4-(2-tetrahydropyran-4-ylpyrimidin-5-yl)phenyl]sulfonylamino]benzoyl]amino]-3-[5-(1-methyl-2,4-dioxo-pyrido[3,4-d]pyrimidin-3-yl)-2-pyridyl]propionic acid] | 50 to 200 nM
3 | COCc1ncc(-c2ccc(S(=O)(=O)Nc3cc(F)c(C(=O)N[C@@H](Cc4ccc(-n5c(=O)c6ccncc6n(C)c5=O)cn4)C(=O)O)cc3F)cc2)cn1 [Example 28, (2S)-2-[[2,5-Difluoro-4-[[4-[2-(methoxymethyl)pyrimidin-5-yl]phenyl]sulfonylamino]benzoyl]amino]-3-[5-(1-methyl-2,4-dioxo-pyrido[3,4-d]pyrimidin-3-yl)-2-pyridyl]propanoic acid] | 10 to 50 nM
4 | COCc1cn(-c2ccc(S(=O)(=O)Nc3cc(F)c(C(=O)N[C@@H](Cc4ccc(-n5c(=O)c6ccncc6n(C)c5=O)cn4)C(=O)O)cc3F)cc2)nn1 [Example 29, (2S)-2-[[2,5-Difluoro-4-[[4-[4-(methoxymethyl)triazol-1-yl]phenyl]sulfonylamino]benzoyl]amino]-3-[5-(1-methyl-2,4-dioxo-pyrido[3,4-d]pyrimidin-3-yl)-2-pyridyl]propanoic acid] | 50 to 200 nM
5 | C=CCn1cc(-c2ccc(S(=O)(=O)Nc3cc(F)c(C(=O)N[C@@H](Cc4ccc(-n5c(=O)c6ccncc6n(C)c5=O)cn4)C(=O)O)cc3F)cc2)cnc1=O [Example 30, (2S)-2-[[4-[[4-(1-Allyl-2-oxo-pyrimidin-5-yl)phenyl]sulfonylamino]-2,5-difluoro-benzoyl]amino]-3-[5-(1-methyl-2,4-dioxo-pyrido[3,4-d]pyrimidin-3-yl)-2-pyridyl]propanoic acid] | 10 to 50 nM
6 | CN(C)CCc1ncc(-c2ccc(S(=O)(=O)Nc3cc(F)c(C(=O)N[C@@H](Cc4ccc(-n5c(=O)c6ccncc6n(C)c5=O)cn4)C(=O)O)cc3F)cc2)cn1 [Example 33, (2S)-2-[[4-[[4-[2-(2-Dimethylaminoethyl)pyrimidin-5-yl]phenyl]sulfonylamino]-2,5-difluoro-benzoyl]amino]-3-[5-(1-methyl-2,4-dioxo-pyrido[3,4-d]pyrimidin-3-yl)-2-pyridyl]propanoic acid] | 10 to 50 nM
7 | Cn1c(=O)n(-c2ccc(C[C@H](NC(=O)c3cc(F)c(NS(=O)(=O)c4ccc(-c5ccnc(C6CCOCC6)c5)cn4)cc3F)C(=O)O)nc2)c(=O)c2ccncc21 [Example 34, (2S)-2-[[2,5-Difluoro-4-[[5-(2-tetrahydropyran-4-yl-4-pyridyl)-2-pyridyl]sulfonylamino]benzoyl]amino]-3-[5-(1-methyl-2,4-dioxo-pyrido[3,4-d]pyrimidin-3-yl)-2-pyridyl]propanoic acid] | 10 to 50 nM
8 | CNCc1ccc2c(c1)c(=O)n(-c1ccc(C[C@H](NC(=O)c3cc(F)c(NS(=O)(=O)c4ccc(-c5cnc(COC)nc5)cc4)cc3F)C(=O)O)cc1)c(=O)n2C [Example 39, (2S)-2-[[2,5-Difluoro-4-[[4-[2-(methoxymethyl)pyrimidin-5-yl]phenyl]sulfonylamino]benzoyl]amino]-3-[4-[1-methyl-6-(methylaminomethyl)-2,4-dioxo-quinazolin-3-yl]phenyl]propanoic acid] | 10 to 50 nM

The next lines start with the values.

Row | IC50 | SMILES
9 | 50 to 200 nM | Cc1c(-c2ccc(C[C@H](NC(=O)c3cc(F)c(NS(=O)(=O)c4ccc(-c5cnc(N6CCC6)nc5)cc4)cc3F)C(=O)O)cc2)c(=O)n(C)c(=O)n1C [Example 36, (2S)-2-[[4-[[4-[2-(Azetidin-1-yl)pyrimidin-5-yl]phenyl]sulfonylamino]-2,5-difluoro-benzoyl]amino]-3-[4-(1,3,4-trimethyl-2,6-dioxo-pyrimidin-5-yl)phenyl]propanoic acid]
10 | 10 to 50 nM | Cc1cn(-c2ccc(S(=O)(=O)Nc3cc(F)c(C(=O)N[C@@H](Cc4ccc(-c5c(C)n(C)c(=O)n(C)c5=O)cc4)C(=O)O)cc3F)nc2)nn1 [Example 37, (2S)-2-[[2,5-Difluoro-4-[[5-(4-methyltriazol-1-yl)-2-pyridyl]sulfonylamino]benzoyl]amino]-3-[4-(1,3,4-trimethyl-2,6-dioxo-pyrimidin-5-yl)phenyl]propanoic acid]
11 | 10 to 50 nM | Cc1c(-c2ccc(C[C@H](NC(=O)c3cc(F)c(NS(=O)(=O)c4ccco4)cc3F)C(=O)O)cc2)c(=O)n(C)c(=O)n1C [Example 38, (2S)-2-[[2,5-Difluoro-4-(2-furylsulfonylamino)benzoyl]amino]-3-[4-(1,3,4-trimethyl-2,6-dioxo-pyrimidin-5-yl)phenyl]propanoic acid]
12 | 50 to 200 nM | Cc1c(-c2ccc(C[C@H](NC(=O)c3cc(F)c(NS(=O)(=O)c4ccc(-c5cnc(COC(C)C)nc5)cc4)cc3F)C(=O)O)cc2)c(=O)n(C)c(=O)n1C [Example 40, (2S)-2-[[2,5-Difluoro-4-[[4-[2-(isopropoxymethyl)pyrimidin-5-yl]phenyl]sulfonylamino]benzoyl]amino]-3-[4-(1,3,4-trimethyl-2,6-dioxo-pyrimidin-5-yl)phenyl]propanoic acid]
